Reference: ChEMBL document CHEMBL4425167, “Screening Identifies Thimerosal as a Selective Inhibitor of Endoplasmic Reticulum Aminopeptidase 1” (ACS Med Chem Lett, 2016)
Calls of active or inactive are those of the source. The calls are words filed in the database; no cut-off is given here.

What was measured:
[1] = molecular target: T1, Endoplasmic reticulum aminopeptidase 1 (Homo sapiens, UniProt Q9NZ08); assay: Inhibition of human ERAP1 expressed in African green monkey COS7 cells using aminoacyl-4-methylcoumaryl-7-amide as substrate after 15 mins by spectrofluorophotometric method
T1 sequence (Q9NZ08 whole entry): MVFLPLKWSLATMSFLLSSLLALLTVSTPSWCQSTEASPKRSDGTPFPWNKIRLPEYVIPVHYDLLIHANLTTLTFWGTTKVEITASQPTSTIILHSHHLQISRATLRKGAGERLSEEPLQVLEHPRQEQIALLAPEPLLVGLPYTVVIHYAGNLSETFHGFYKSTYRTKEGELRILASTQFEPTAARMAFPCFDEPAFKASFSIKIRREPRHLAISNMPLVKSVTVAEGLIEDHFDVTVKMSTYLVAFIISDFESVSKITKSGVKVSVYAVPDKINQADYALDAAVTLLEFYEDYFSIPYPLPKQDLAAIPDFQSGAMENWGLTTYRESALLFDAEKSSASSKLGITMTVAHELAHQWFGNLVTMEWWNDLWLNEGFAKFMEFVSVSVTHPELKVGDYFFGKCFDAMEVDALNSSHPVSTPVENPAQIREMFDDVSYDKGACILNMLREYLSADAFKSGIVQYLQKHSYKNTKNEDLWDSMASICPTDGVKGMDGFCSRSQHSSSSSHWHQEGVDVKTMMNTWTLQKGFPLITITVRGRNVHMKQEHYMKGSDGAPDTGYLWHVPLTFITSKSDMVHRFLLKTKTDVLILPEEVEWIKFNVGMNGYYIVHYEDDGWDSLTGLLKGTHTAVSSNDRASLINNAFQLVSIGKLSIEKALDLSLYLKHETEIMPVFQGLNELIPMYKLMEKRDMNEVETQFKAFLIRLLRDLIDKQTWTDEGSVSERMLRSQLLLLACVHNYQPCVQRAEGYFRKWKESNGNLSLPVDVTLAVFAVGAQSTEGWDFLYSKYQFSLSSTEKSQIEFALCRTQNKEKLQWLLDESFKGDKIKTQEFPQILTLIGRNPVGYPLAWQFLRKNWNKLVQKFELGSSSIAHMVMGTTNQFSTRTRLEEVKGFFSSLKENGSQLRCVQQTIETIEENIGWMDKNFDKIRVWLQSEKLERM

[2] = system: BMDC; assay: Inhibition of ovalbumin cross presentation to OT-I Rag1-/-mouse CD8+ T cells in C57Bl/6 JRj mouse ERAP+/+ BMDC assessed as increase in IL-2 secretion from CD8+ T cells at 0.01 to 10 uM preincubated for 90 mins followed by 3 to 18 hrs incubation in presence of ovalbumin by sandwich ELISA method; assay type: functional, cell-based
[3] = molecular target: T1, Endoplasmic reticulum aminopeptidase 1; assay: Inhibition of recombinant ERAP1 (unknown origin) expressed in baculovirus infected Hi5 cells using L-leucine 7-amido-4-methyl coumarin as substrate up to 30 uM by fluorescence microplate reader method
[4] = system: BMDC; assay: Inhibition of ovalbumin cross presentation to OT-I Rag1-/-mouse CD8+ T cells in C57Bl/6 JRj mouse ERAP-/- BMDC assessed as increase in IL-2 secretion from CD8+ T cells at 0.01 to 10 uM preincubated for 90 mins followed by 3 to 18 hrs incubation in presence of ovalbumin by sandwich ELISA method; assay type: functional, cell-based

Compound | IC50 [1] [µM] | inhibition [2] | inhibition [3] | inhibition [4]
CC(C)C[C@H](NC(=O)[C@@H](O)[C@H](N)Cc1ccccc1)C(=O)O [UBENIMEX] | 50 to 100 | – | – | –
O=C(O)c1ccccc1S | – | inactive | inactive | inactive
